{"source": "paper PMC3254257", "about": "(Bioconjugate Chemistry, 2011)", "key": {"[1]": {"test": "Stability in serum", "format": "in vitro ADME, bovine", "settings": "37°C; for relative serum stability: 100% FBS, 10 h"}, "[2]": {"test": "Tetrazine cycloaddition kinetics with TCO", "format": "physicochemical", "settings": "among tetrazines of this study"}, "[3]": {"test": "Tetrazine cycloaddition kinetics with norbornene", "format": "physicochemical", "settings": "PBS pH 7.4, 37°C, 5% DMSO, excess NB"}, "[4]": {"test": "Aqueous solubility", "format": "physicochemical", "settings": "water"}}}
{"smiles": "Cc1nnc(CCCCCN)nn1.Cl", "note": "[Tetrazine 6, 5-(6-Methyl-1,2,4,5-tetrazin-3-yl)pentan-1-amine hydrochloride]", "values": [{"measurement": "relative serum stability", "setting": "[1]", "result": "best serum stability"}, {"measurement": "relative cycloaddition kinetics with TCO", "setting": "[2]", "result": "slowest reaction kinetics"}, {"measurement": "cycloaddition kinetics with NB compared to hydrogen substituted tetrazine 1", "setting": "[3]", "result": "slower cycloaddition reactions"}, {"measurement": "aqueous solubility", "setting": "[4]", "result": "extremely water soluble"}]}
{"smiles": "Cl.NCc1ccc(-c2nnc(-c3ccccn3)nn2)cc1", "note": "[Tetrazine 3, (4-(6-(Pyridin-2-yl)-1,2,4,5-tetrazin-3-yl)phenyl)methanamine hydrochloride]", "values": [{"measurement": "time to formation of a precipitate in FBS", "setting": "[1]; FBS, serum stability could not be measured", "result": "1.5 to 2", "unit": "h"}]}
{"smiles": "Cl.NCc1ccc(-c2nnc(-c3ncccn3)nn2)cc1", "note": "[Tetrazine 4, (4-(6-(Pyrimidin-2-yl)-1,2,4,5-tetrazin-3-yl)phenyl)methanamine hydrochloride]", "values": [{"measurement": "relative serum stability", "setting": "[1]", "result": "least stable"}, {"measurement": "cycloaddition kinetics with NB compared to hydrogen substituted tetrazine 1", "setting": "[3]", "result": "faster kinetics"}]}
{"smiles": "c1ccc(-c2nnc(-c3ccccc3)nn2)cc1", "note": "[3,6-diphenyl tetrazine, reference compound]", "values": [{"measurement": "aqueous solubility", "setting": "[4]", "result": "not soluble to any measurable amount"}]}
